Experimental data from patent US8785499B2 (priority 2009, dated 2014).

Assays:
[1] = target: baNadD (Bacillus anthracis, UniProt C3L5T6); experiment: biochemical; type: biochemical
[2] = target: ecNadD (Escherichia coli (strain K12), UniProt P0A752); experiment: biochemical; type: biochemical

Sequence of baNadD (C3L5T6 whole entry, looked up): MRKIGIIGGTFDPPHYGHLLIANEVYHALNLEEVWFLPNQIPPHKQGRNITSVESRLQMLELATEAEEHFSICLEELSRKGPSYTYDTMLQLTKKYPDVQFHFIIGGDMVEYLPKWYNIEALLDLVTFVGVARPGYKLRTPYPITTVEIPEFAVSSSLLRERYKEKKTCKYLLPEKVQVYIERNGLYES

Compound	[…]. anthracis [1] [%]	[…]. coli [2] [%]
O=C(O)c1ccc(/C=N/NC(=O)c2cc3cc(Br)ccc3o2)cc1 [compound 172]	32	3
Nc1nc(SCC(=O)NCC2CCCO2)n[nH]1 (stereo not drawn) [compound 173]	0	3
O=C(O)c1cccc(COc2ccc(CO)cc2Cl)c1 [compound 175]	0	3
O=C(O)CSc1nc(=O)cc(-c2ccccc2)[nH]1 [compound 176]	0	3
O=C(CSC(=O)c1ccccc1)Nc1ccc(Cl)cn1 [compound 177]	21	3
CS(=O)(=O)NCCOc1ccc(S(=O)(=O)NCc2ccccc2)cc1 [compound 179]	0	3
O=C(O)c1cccc(CSc2ncccn2)c1 [compound 180]	15	3
O=C(O)c1ccc(OCOc2ccc(C(=O)O)c(C(=O)O)c2)cc1C(=O)O [compound 181]	56	3
CC(=NNC(=O)COc1ccc(C)cc1)C(=O)O [compound 182]	14	3
Nc1nnc(-c2cc(-c3ccc(Cl)cc3)on2)o1 [compound 183]	7	3
Cc1ccccc1N1CC(C(=O)O)CC1=O (stereo not drawn) [compound 184]	16	2
O=C(O)c1[nH]c2ccc(Cl)cc2c1-c1ccccc1 [compound 185]	40	2
O=C(Nc1ccc([N+](=O)[O-])cn1)c1sc2ccccc2c1Cl [compound 186]	9	2
C=CCSc1nnc(-c2cc(Br)ccc2N)c(O)n1 [compound 187]	0	2
O=S(=O)(NCc1cccs1)c1ccc(Br)cc1 [compound 188]	0	1
O=C(CSc1n[nH]c(=O)[nH]c1=O)N/N=C\c1ccc(Br)cc1 [compound 189]	0	1
CN1CCN(C(=O)c2ccccc2C(=O)O)CC1 [compound 190]	0	1
N/N=C/c1c(Cl)cccc1Cl [compound 191]	5	1
COc1ccc(N(CC(=O)O)S(=O)(=O)c2ccc(C)cc2)cc1Cl [compound 192]	0	1
O=C(O)CCSCCc1ccncc1 [compound 193]	18	1
O=C1NC(=O)/C(=C\c2ccc(O)c(I)c2)N1 [compound 194]	62	1
O=C(NNC(=O)c1ccccc1C(=O)O)c1ccc(Cl)cc1 [compound 195]	0	1
COCCNS(=O)(=O)c1ccc2c(c1)CCN2C(=O)CCC(=O)O [compound 196]	52	1
O=C(CSc1nc2ccccc2[nH]1)Nc1nncs1 [compound 197]	34	0
N=C1NC(=O)C(Cc2ccccc2Cl)S1 (stereo not drawn) [compound 198]	7	0

Compound	[…]. anthracis [1] [%]	[…]. coli [2] [%]
Cc1cc(S(=O)(=O)Nc2cccc(C(=O)O)c2)ccc1Cl [compound 199]	0	0
CC(=NNC(=O)CCC(=O)Nc1ccc(Br)cc1)c1ccc2ccccc2c1 [compound 200]	76	0
Cc1ccc(-c2nnc(SCC(=O)O)o2)cc1 [compound 201]	25	0
O=C(N/N=C/c1ccccc1Cl)c1cccnc1 [compound 202]	32	0
O=S(=O)(Nc1ccc(Br)c(Cl)c1)c1cccs1 [compound 203]	0	0
NS(=O)(=O)c1ccc(NC(=O)CSc2ncn(-c3ccccc3)n2)cc1 [compound 205]	40	0
NS(=O)(=O)c1ccc(NC(=S)NCCc2c[nH]c3ccccc23)cc1 [compound 206]	25	0
O=C(O)CCCC(=O)Nc1nc2ccccc2s1 [compound 207]	7	0
CSc1cccc(NS(=O)(=O)c2ccc(F)cc2)c1 [compound 208]	0	0
O=C(O)c1cc(NC(=O)c2ccc(Cl)cc2Cl)cc(C(=O)O)c1 [compound 209]	0	0
Cc1ccc(S(=O)(=O)/N=C(/NCC(=O)O)c2ccccc2)cc1 [compound 211]	42	0
CCC(NS(=O)(=O)c1ccc(OC)cc1)C(=O)O (stereo not drawn) [compound 212]	32	0
NS(=O)(=O)c1ccc(CCNC(=O)c2ccc([NH2+][O-])cc2)cc1 [compound 213]	54	0
NS(=O)(=O)c1ccc(/N=C/c2ccc(Br)cc2)cc1 [compound 214]	0	0
O=C(O)c1ccc(-n2ncc(Cl)c(Cl)c2=O)cc1 [compound 217]	0	0
NS(=O)(=O)c1ccc(N/C=C2\C(=O)Oc3ccccc3C2=O)cc1 [compound 218]	0	0
CCOC(=O)c1ccc(N/C=C2\C(=O)Oc3ccccc3C2=O)cc1 [compound 220]	0	0
O=C(NCc1cccs1)C1CC(c2cccc(Br)c2)=NO1 (stereo not drawn) [compound 222]	0	0
CC(C)COC1CS(=O)(=O)CC1OCC(C)C (stereo not drawn) [compound 223]	20	0
CSc1ccccc1NC(=S)Nc1cccnc1 [compound 224]	0	0
Brc1ccc2ncnc(NCc3cccnc3)c2c1 [compound 225]	55	0
O=C(O)C1CCCN(S(=O)(=O)c2cccc([N+](=O)[O-])c2)C1 (stereo not drawn) [compound 227]	0	0
O=C(CSc1ncnc2ccccc12)Nc1ccc2nsnc2c1 [compound 228]	28	0
O=C(CSc1nc2ccccc2o1)Nc1nncs1 [compound 229]	0	0
CC(=O)Nc1ccc(/N=C/c2ccc([N+](=O)[O-])cc2)cc1 [compound 230]	0	0

Compound	[…]. anthracis [1] [%]	[…]. coli [2] [%]
Cc1ccc(SCc2cc(=O)n3ncnc3[nH]2)cc1 [compound 231]	0	0
Nc1nc(-c2cccc(Br)c2)cs1 [compound 232]	12	0
N#CCc1ccc(NC(=O)/C=C/c2ccc([N+](=O)[O-])o2)cc1 [compound 233]	8	0
O=C(O)c1ccc(-c2ccccc2F)o1 [compound 234]	0	0
O=C(O)c1ccc2[nH]c(CCc3nc4cc(C(=O)O)ccc4[nH]3)nc2c1 [compound 235]	0	0
O=C(CSc1ccccc1)Nc1cc(C(=O)O)cc(C(=O)O)c1 [compound 236]	0	0
Nc1nn(S(=O)(=O)c2ccccc2)cc1-c1ccc(Cl)cc1 [compound 237]	0	0
O=C(O)CCC(=O)NCc1ccc(C(=O)O)cc1 [compound 238]	14	0
O=C(O)CCC(=O)Nc1ccc(-c2nnc(-c3ccco3)o2)cc1 [compound 239]	11	0
CC(=O)c1cccc(NS(=O)(=O)c2cccc(C(=O)O)c2)c1 [compound 240]	0	0
O=[N+]([O-])c1cccc(S(=O)(=O)Nn2cnnc2)c1 [compound 241]	59	0
CC(c1ccccc1)c1nnc(N)s1 (stereo not drawn) [compound 242]	18	0
Cc1ccc(NS(=O)(=O)c2coc(C(N)=O)c2)cc1F [compound 243]	0	0
CC(=O)NC(=S)Nc1ccc(Cl)c(Cl)c1 [compound 244]	0	0
O=C(NCc1ccc(C(=O)O)cc1)Nc1ccc(Br)cc1Cl [compound 245]	0	0
O=C(O)C(Cc1ccccc1)NS(=O)(=O)c1ccc2c(c1)OCCO2 (stereo not drawn) [compound 246]	0	0
O=C(O)CCC(=O)OC/C=C/c1ccccc1 [compound 247]	18	0
O=C(CSc1nc2ccccc2[nH]1)Nc1cccc(C(=O)O)c1 [compound 248]	4	0
Cn1c(=O)n(C)c2cc(S(=O)(=O)NCCC(=O)O)ccc21 [compound 249]	1	0
NNC(=O)CNC(=O)CNS(=O)(=O)c1ccc(Cl)cc1 [compound 250]	0	0
CSc1nc2nc(N)nc(N)c2s1 [compound 251]	0	0
O=[N+]([O-])c1ccc2[nH]c(CCc3nc4cc([N+](=O)[O-])ccc4[nH]3)nc2c1 [compound 252]	0	0
Nc1nc(-c2cc([N+](=O)[O-])cc([N+](=O)[O-])c2)n[nH]1 [compound 253]	7	0
Nc1[nH][nH]c(=O)c1/N=N/c1ccccc1F [compound 254]	0	0
OCC#CCSc1nnc(-c2cccc(Br)c2)o1 [compound 255]	0	0
